Our source for the EC50, inhibition and Emax values is patent publication US10463651B2, “3-(1H-pyrrolo[3,2-C]pyridin-2-YL)-1H-indazoles and therapeutic uses thereof” (Samumed, LLC, priority 2015, dated 2019).

As a reminder, the inhibition is the share of the control response that was lost under treatment.

Common to all, as to assay type: cell-based
The subject of assay [1] is Wnt activity (Sp5-Luc reporter, SW480 colon carcinoma cells). The experiment in a line: Screening assay for Wnt activity (Sp5-Luc reporter gene assay in SW480 cells). The settings on record: Homo sapiens; for EC50: Sp5-Luc reporter, SW480 cells, incubated overnight. The gist of the method:
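SW480 colon carcinoma cells stably carrying Sp5 promoter (eight TCF/LEF sites)-driven firefly luciferase, plated at 4,000 cells/well in 1% FBS medium and incubated overnight at 37° C. Luminescence normalised to DMSO-only cells; EC50 from four-parameter variable-slope nonlinear regression.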
For orientation: In a reporter assay the amount or activity of a reporter protein is the signal.

For assay [2], the system named is SW480 colon cancer cells. Kind of assay: Cell viability assay (CellTiter-Blue). The following applies: Homo sapiens; for EC50: 96 h, SW480 cell viability, four days, CellTiter-Blue. The method in brief:
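Fluorescence from resazurin reduced to resorufin by metabolically active cells was the read-out, taken after ~3 h with CellTiter-Blue.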

Assay [3] concerns primary human mesenchymal stem cells (hMSCs). Kind of assay: Induction of chondrogenesis in hMSCs (Rhodamine B / Nile Red nodule imaging). The following applies: for Emax: maximum activity relative to TGF-β3 (10 ng/mL) positive control, read-out: Max. Activity as % TGF-β3 activity; for EC50: concentration required to induce 50% levels of chondrogenesis vs TGF-β3 positive control, read-out: Conc (nM) of 50% TGF-β3 activity. The method in brief:
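Primary hMSCs at passage 3-6 were treated with compound; nodule area per well was normalized to the mean of 3 DMSO wells, averaged over 2-3 replicates, and the concentration giving 50% chondrogenesis relative to TGF-β3 control, plus maximum activity and its dose, was derived.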

The test system of assay [4] is primary human fibroblasts derived from IPF patients (LL29 cells) treated with TGF-β1. Kind of assay: Inhibition of the fibrotic process (αSMA staining) in TGF-β1-treated fibroblasts. The settings on record: Fibroblast, 96 h; for EC50: % αSMA-positive LL29 cells, TGF-β1 20 ng/mL, 4 days. The gist of the method: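 LL29 fibroblasts from IPF patients, 1,500 cells/well in F12 with 1% FBS, stimulated with TGF-β1; TGF-β1 plus DMSO wells as controls. Incubation 4 days, then SYTOX green 1 μM final for 30 min at room temperature. Fibrotic response read as αSMA staining.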

The test system of assay [5] is IL-6 (THP-1 cells). Kind of assay: IL-6 inhibition in LPS-stimulated THP-1 cells (HTRF). The following applies: Homo sapiens; for EC50: IL6 by HTRF, THP-1 cells, 500 ng/mL LPS, 22 hours. The gist of the method: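 THP-1 cells, pre-cultured 24 h in 1% FBS medium, treated with compound 2 h at 37 °C, then stimulated with 500 ng/mL LPS for 22 h. Secreted IL-6 measured by HTRF as the 665/620 nm ratio. Values normalized to DMSO; EC50 from four-parameter fit, duplicates.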
(In general: In TR-FRET formats the signal depends on donor and acceptor labels being close together.)

SMILES strings stand for the structures. Where only a bound is given, the exact number is not on record here.

As to `CC(C)C(=O)Nc1cncc(-c2ccc3[nH]nc(-c4cc5c(N6CCN(C)CC6)nccc5[nH]4)c3c2)c1` [Compound 233, N-(5-(3-(4-(4-Methylpiperazin-1-yl)-1H-pyrrolo[3,2-c]pyridin-2-yl)-1H-indazol-5-yl)pyridin-3-yl)isobutyramide], the EC50 in assay [1] was 7.69 µM; in assay [2] it was > 10 µM; in assay [4], 4720 nM; in assay [5], 6.11 µM. Besides, the inhibition at 10 µM in assay [2] (SW480, 96 h, read-out: percent inhibition at 10 μM) turned out to be 38.5%. Further, the Emax in assay [3] turned out to be 21%.
For the compound `CN1CCN(c2nccc3[nH]c(-c4n[nH]c5ccc(-c6cncc(NC(=O)c7ccccc7)c6)cc45)cc23)CC1` [Compound 235, N-(5-(3-(4-(4-Methylpiperazin-1-yl)-1H-pyrrolo[3,2-c]pyridin-2-yl)-1H-indazol-5-yl)pyridin-3-yl)benzamide], the EC50 in assay [1] was determined as 2.14 µM; in assay [2] it was 3.62 µM; in assay [4], 1610 nM; in assay [5], 0.754 µM. Besides, the Emax in assay [3] amounted to 35%.
With `CN1CCN(c2nccc3[nH]c(-c4n[nH]c5ccc(-c6cncc(CN7CCCC7)c6)cc45)cc23)CC1` [Compound 238, 3-(4-(4-Methylpiperazin-1-yl)-1H-pyrrolo[3,2-c]pyridin-2-yl)-5-(5-(pyrrolidin-1-ylmethyl)pyridin-3-yl)-1H-indazole], the EC50 in assay [1] was 9.38 µM; in assay [2], 4.19 µM; in assay [4] it was > 10000 nM; in assay [5], > 10 µM. Besides, the Emax in assay [3] was found to be 31%. The inhibition at 10 µM in assay [4] (read-out: percent inhibition at 10 μM) stood at 45.7%; in assay [5] (THP-1, read-out: percent inhibition at 10 M), 40.5%.
In the case of `CN1CCN(c2nccc3[nH]c(-c4n[nH]c5ccc(-c6cncc(CN7CCCCC7)c6)cc45)cc23)CC1` [Compound 239, 3-(4-(4-Methylpiperazin-1-yl)-1H-pyrrolo[3,2-c]pyridin-2-yl)-5-(5-(piperidin-1-ylmethyl)pyridin-3-yl)-1H-indazole], in assay [1] (SW480, read-out: percent inhibition at 10 μM), the inhibition at 10 µM stood at 51%. The EC50 in assay [1] is > 10 µM; in assay [2], 3.71 µM; in assay [3], 900 nM; in assay [4], 5120 nM; in assay [5], 8.42 µM. The Emax in assay [3] was 55%.
On to `CCCCC(=O)Nc1cncc(-c2ccc3[nH]nc(-c4cc5c(N6CCN(C)CC6)nccc5[nH]4)c3c2)c1` [Compound 243, N-(5-(3-(4-(4-Methylpiperazin-1-yl)-1H-pyrrolo[3,2-c]pyridin-2-yl)-1H-indazol-5-yl)pyridin-3-yl)pentanamide], for which the EC50 in assay [1] amounted to 3.69 µM; in assay [2] it was 3.48 µM; in assay [4], 1830 nM; in assay [5], 3.17 µM. In addition, in assay [3], the Emax is 49%.
The like results for `CN1CCN(c2nccc3[nH]c(-c4n[nH]c5ccc(-c6cncc(NC(=O)C7CCCCC7)c6)cc45)cc23)CC1` [Compound 247, N-(5-(3-(4-(4-Methylpiperazin-1-yl)-1H-pyrrolo[3,2-c]pyridin-2-yl)-1H-indazol-5-yl)pyridin-3-yl)cyclohexanecarboxamide] were, in that order, 5.27 µM, 4.82 µM, 3350 nM, 8.87 µM and 38%.
As to `CCC(=O)Nc1cncc(-c2ccc3[nH]nc(-c4cc5cnccc5[nH]4)c3c2)c1` [Compound 253, N-(5-(3-(1H-Pyrrolo[3,2-c]pyridin-2-yl)-1H-indazol-5-yl)pyridin-3-yl) propionamide], the EC50 was 0.15 µM in assay [1]; 0.533 µM in assay [2]; 900 nM in assay [3]; 499 nM in assay [4]; 0.189 µM in assay [5]. In addition, the Emax in assay [3] was 259%.
`c1cncc(-c2ccc3[nH]nc(-c4cc5cnccc5[nH]4)c3c2)c1` [Compound 256, 5-(Pyridin-3-yl)-3-(1H-pyrrolo[3,2-c]pyridin-2-yl)-1H-indazole]: the EC50 in assay [1] was determined as 0.04 µM; in assay [2], 0.068 µM; in assay [3], 10 nM; in assay [4] it was 106 nM; in assay [5], 0.053 µM. Besides, the Emax in assay [3] was determined as 341%.
